Test results published in article PMC4942781, “A sodium channel inhibitor ISTX-I with a novel structure provides a new hint at the evolutionary link between two toxin folds” (Scientific Reports, 2016).
Entries after “also recorded” stand apart in the source; their conditions may differ. Bridge positions count the residues as written; N and C are the ends. Ends that are not written are not given here.

How the values were obtained:
hNav1.1 = experiment: Whole-cell patch clamp, hNav1.1 in HEK293T cells; assay type: cell-based, human; conditions: 10 μM ISTX-I; 50 ms step to -10 mV from -80 mV
Method: (§1) HEK293T (human embryonic kidney) cells were grown in DMEM containing 10% heat-inactivated FBS at 37 °C in a 5% CO2 incubator. The cDNA genes encoding human (h)Nav1.1, (h)Nav1.2, (h)Nav1.3, (h)Nav1.4, (h)Nav1.5, (h)Nav1.6 and (h)Nav1.7 were transiently transfected into HEK293T cells for electrophysiology using Lipofectamine-2000 (Invitrogen) in serum-reduced medium (Opti-MEM, Invitrogen) following the manufacturer’s instructions. The auxiliary subunits hβ1 and enhanced green florescent protein plasmids were cotransfected into HEK293T cells to increase the current density and efficiently select cells with green florescent protein for whole-cell patch-clamp recordings. After 12 h, the HEK293T cells were used for electrophysiological analysis.
(§2) DRG neurons with a large diameter (>[…]) and those with a relatively small diameter (<[…]) were chosen by measuring TTX-s and TTX-r currents, respectively. […] Potassium, calcium, and sodium currents were recorded in experimental cells using whole-cell patch-clamp recordings at room temperature, which were performed with an HEK EPC10 patch-clamp amplifier. […] Experimental data were acquired and analyzed using the programs patch master and Sigmaplot 9.0 (Sigma, USA). […]
(§3) Currents were recorded from experimental cells using whole-cell patch clamptechnique at room temperature (22–25 °C). […]

hNav1.5 = experiment: Whole-cell patch clamp, hNav1.5 in HEK293T cells; assay type: cell-based, human; conditions: 10 μM ISTX-I; 50 ms step to -10 mV from -80 mV
Method: as §1, §2, §3

sodium channels = experiment: Selectivity and mode of action on sodium channels, summary statements; assay type: cell-based
Method: (§4) Rat DRG cells were acutely dissociated from adult Sprague-Dawley rats[30]. Briefly, adult rats of either sex with body weights of approximately 200 g were killed by decapitation. The dorsal root ganglia were isolated quickly from the spinal cord and then transferred into Dulbecco’s modified Eagle’s medium (DMEM) containing trypsin I (0.15 mg/mL) and collagenase II (0.3 mg/mL) for incubation with an oscillation frequency of 200 rpm at 37 °C for 20 min. The trypsin inhibitor II-S (1 mg/mL) was added to terminate the reaction. The isolated DRG cells were split into 35 mm culture dishes with DMEM solution containing 10% fetal bovine serum (FBS) and were incubated in a CO2 incubator (5% CO2, 95% air, 37 °C) for 1–4 h before the patch-clamp experiment. […]
as §2, §3

hNav1.3 = experiment: Whole-cell patch clamp, hNav1.3 in HEK293T cells; assay type: cell-based, human; conditions: 10 μM ISTX-I; 50 ms step to -10 mV from -80 mV
Method: as §1, §2, §3

calcium channel = experiment: Whole-cell patch clamp, Cav currents in DRG neurons; assay type: cell-based, rat; conditions: 20 μM ISTX-I, 150 ms step depolarization to +10 mV from −90 mV, Ba2+ as charge carrier
Method: as §4, with “reaction.” for “reaction. The isolated DRG cells were split into 35 mm culture dishes with DMEM solution containing 10% fetal bovine serum (FBS) and were incubated in a CO2 incubator (5% CO2, 95% air, 37 °C) for 1–4 h before the patch-clamp experiment.”
as §2, §3
25, MgCl2 12, HEPES 10, and D-glucose 10 (pH 7.2). Calcium channel currents were measured using Ba2+ as the charge carrier. […]

LCSENGDCAADECCVDTVFEGDMVTRSCEKTTGNFTECPGLTPIA (disulfide 2-14, 8-28, 13-38) [ISTX-I]
effect on hNav1.1 (hNav1.1): no effect
effect on hNav1.5 (hNav1.5): no effect
shift of I-V and G-V curves upon inhibition of sodium channels (summary) (sodium channels): without any shifts of the I-V and G-V curves
sodium channel subtype selectivity (in words) (sodium channels): not other sodium channel subtypes; also recorded: specific activity on Nav1.7 subtypes; also recorded: subtype-selective inhibitor of Nav1.7
effect on hNav1.3 (hNav1.3): no effect
effect on calcium channels (calcium channel): no obvious effects; also recorded: No effects were detected
